According to ChEMBL document CHEMBL1201862, “PubChem BioAssay data set” (2004):
Active and inactive are the calls of the source.

Tests used:
[1] = NIH-3T3 fibroblast cytotoxicity, dose response, cytotoxicity control, cell-based, fluorescence, Alamar Blue, secondary assay (AID 2327); type: functional;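 also: NIH-3T3 mouse fibroblasts cultured with fluconazole at 8 µg/mL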
[2] = viability of uninfected HEp-2 cells – cell-based, HTS, cytotoxicity control for RSV inhibitor project, dose response (AID 2410); type: functional; settings: human respiratory syncytial virus
[3] = fluconazole-exposed Candida albicans growth modulators – fluorescence, retest, confirmation (AID 2467); type: functional, cell-based
[4] = target: T1, Sphingosine 1-phosphate receptor 4 (Homo sapiens, UniProt O95977); assay: Late stage fluorescence dose response cell-based screening assay for antagonists of the Sphingosine 1-Phosphate Receptor 4 (S1P4). [Related pubchem assays: 1524 (Confirmation screen (S1P4 antagonists).), 1510 (Primary screen (S1P4 antagonists).), 1853 (Summary AID (S1P4 antagonists).), 1692 (Dose response screen (S1P4 antagonists).)]; type: functional
T1 sequence (O95977 whole entry): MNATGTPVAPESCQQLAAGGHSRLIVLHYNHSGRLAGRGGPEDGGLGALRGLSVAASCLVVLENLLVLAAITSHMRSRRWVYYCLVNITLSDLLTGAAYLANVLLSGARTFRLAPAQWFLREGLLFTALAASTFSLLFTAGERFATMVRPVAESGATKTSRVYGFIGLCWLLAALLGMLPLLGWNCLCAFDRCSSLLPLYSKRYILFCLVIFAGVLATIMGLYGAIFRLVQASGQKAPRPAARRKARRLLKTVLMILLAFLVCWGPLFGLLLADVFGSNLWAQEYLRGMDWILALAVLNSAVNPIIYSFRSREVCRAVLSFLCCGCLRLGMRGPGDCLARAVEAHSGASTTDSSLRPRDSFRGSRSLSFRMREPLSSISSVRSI

[5] = target: T1, Sphingosine 1-phosphate receptor 4; assay: Fluorescence dose response cell-based high throughput screening assay for antagonists of the Sphingosine 1-Phosphate Receptor 4 (S1P4). [Related pubchem assays: 1524 (Confirmation in triplicates.), 1510 (Primary screen.)]; type: functional
[6] = target: Sphingosine 1-phosphate receptor 1 (Homo sapiens, UniProt P21453); type: functional;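 also: Tango beta-arrestin reporter U2OS cells stimulated with S1P near its EC80; inhibitor potency meaning antagonism of receptor activation by the natural agonist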
[7] = target: T2, Replicative DNA helicase DnaB (Mycobacterium tuberculosis, UniProt P9WMR3); assay: DnaB intein splicing inhibitors, dose response, biochemical, cell-free fluorescence (AID 449749); type: functional
T2 sequence (P9WMR3 whole entry): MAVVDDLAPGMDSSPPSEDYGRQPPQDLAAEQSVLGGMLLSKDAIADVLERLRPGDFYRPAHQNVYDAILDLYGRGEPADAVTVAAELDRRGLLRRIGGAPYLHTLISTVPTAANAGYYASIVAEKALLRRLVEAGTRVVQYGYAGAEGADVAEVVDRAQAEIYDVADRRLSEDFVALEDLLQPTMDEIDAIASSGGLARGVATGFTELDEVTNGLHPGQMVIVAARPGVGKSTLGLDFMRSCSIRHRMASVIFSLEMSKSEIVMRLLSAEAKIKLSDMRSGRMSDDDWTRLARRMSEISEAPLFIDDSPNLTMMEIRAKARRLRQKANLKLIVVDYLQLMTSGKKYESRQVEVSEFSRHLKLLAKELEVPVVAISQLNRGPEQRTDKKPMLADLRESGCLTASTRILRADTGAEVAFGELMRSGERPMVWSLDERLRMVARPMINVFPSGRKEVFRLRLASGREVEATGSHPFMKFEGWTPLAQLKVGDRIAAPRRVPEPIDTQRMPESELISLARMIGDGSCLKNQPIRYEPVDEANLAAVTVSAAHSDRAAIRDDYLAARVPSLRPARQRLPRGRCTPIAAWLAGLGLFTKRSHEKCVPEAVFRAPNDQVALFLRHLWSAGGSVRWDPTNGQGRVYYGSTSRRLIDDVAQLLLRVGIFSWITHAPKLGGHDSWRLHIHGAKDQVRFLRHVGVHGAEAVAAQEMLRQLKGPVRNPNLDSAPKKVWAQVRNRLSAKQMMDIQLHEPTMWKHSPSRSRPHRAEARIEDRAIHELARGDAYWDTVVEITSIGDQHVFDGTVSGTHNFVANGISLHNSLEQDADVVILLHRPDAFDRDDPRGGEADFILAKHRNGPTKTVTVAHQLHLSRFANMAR

[8] = target: Heat shock protein HSP 90-alpha (Homo sapiens, UniProt P07900); type: functional, organism-based
Protein RecA = target: T3, Protein RecA (Mycobacterium tuberculosis, UniProt P9WHJ3); assay: Fluorescence Cell-Free Homogeneous Dose Retest to Identify Inhibitors of RecA-Intein Splicing Activity. [Related pubchem assays (depositor defined):AID2097, AID2223, AID489010, AID492950]; type: functional
T3 sequence (P9WHJ3 whole entry): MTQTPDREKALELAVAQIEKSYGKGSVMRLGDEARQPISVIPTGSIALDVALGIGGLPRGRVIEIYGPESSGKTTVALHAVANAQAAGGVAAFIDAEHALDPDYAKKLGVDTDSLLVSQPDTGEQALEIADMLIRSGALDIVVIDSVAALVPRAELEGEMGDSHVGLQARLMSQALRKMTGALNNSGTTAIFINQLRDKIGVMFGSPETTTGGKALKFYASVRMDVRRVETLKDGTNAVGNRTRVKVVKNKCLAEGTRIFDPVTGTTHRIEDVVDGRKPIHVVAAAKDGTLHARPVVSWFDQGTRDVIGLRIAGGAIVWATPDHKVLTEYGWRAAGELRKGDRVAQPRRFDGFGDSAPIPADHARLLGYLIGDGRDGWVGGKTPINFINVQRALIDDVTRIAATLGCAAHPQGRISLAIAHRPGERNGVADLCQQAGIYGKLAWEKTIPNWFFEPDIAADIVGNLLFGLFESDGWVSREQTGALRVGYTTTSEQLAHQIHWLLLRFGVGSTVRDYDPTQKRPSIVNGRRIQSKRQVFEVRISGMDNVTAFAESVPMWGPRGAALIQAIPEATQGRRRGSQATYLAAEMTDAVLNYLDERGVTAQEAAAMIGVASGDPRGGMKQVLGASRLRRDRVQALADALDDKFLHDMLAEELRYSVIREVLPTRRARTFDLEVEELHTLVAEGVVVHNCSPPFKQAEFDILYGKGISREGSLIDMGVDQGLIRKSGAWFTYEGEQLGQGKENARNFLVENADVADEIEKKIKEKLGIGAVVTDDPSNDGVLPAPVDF

[9] = Fluorescence-based cell-based high throughput dose response assay for inhibitors of the interaction of nucleotide-binding oligomerization domain containing 2 (NOD2) and the receptor-interacting serine-threonine kinase 2 (RIPK2).; type: functional; settings: Homo sapiens
Beta Lactamase = Beta Lactamase (Pseudomonas aeruginosa, UniProt Q932Y6); assay: BLA reporter interference, concentration series – BLA reporter cells, FRET fluorescence, artefact control for NOD2-RIPK2 interaction inhibitor project, dose response (AID 651552); type: functional, cell-based
Fatty acid synthase [10] = target: T4, Fatty acid synthase (Homo sapiens, UniProt P49327); assay: inhibition of human FAS-TE enzyme activity – biochemical, endpoint fluorescence intensity, uHTS hits, dose response (AID 624327); type: functional;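 also: fluorescence from hydrolysis of an O-methyl fluorescein acyl ester substrate by the enzyme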
Fatty acid synthase [11] = target: T4, Fatty acid synthase; assay: inhibition of human FAS-TE enzyme activity – biochemical, kinetic fluorescence intensity, dose response (AID 624326); type: functional;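 also: rate of fluorescence rise from hydrolysis of a fluorogenic O-methyl fluorescein ester substrate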
Danio rerio = assay: In Vivo Angiogenesis Dose-Response Confirmation. [Related pubchem assays: 732 (Assay preceding this confirmatory assay.)]; type: functional, organism-based
[12] = A cytotoxicity screen of small molecule inhibitors of the PhoP region in Salmonella typhi identified in the primary screen. [Related pubchem assays: 1850, 1864, 1985 ]; type: functional
[13] = M. tuberculosis H37Rv growth inhibitors, H37Rv strain (AID 1626); type: functional
[14] = target: Protein-tyrosine kinase 2-beta (Homo sapiens, UniProt Q14289);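 also: potency of inhibitors of PYK2 kinase phosphorylation of poly-GT substrate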
[15] = target: T5, Polyadenylate-binding protein 1 (Homo sapiens, UniProt P11940); assay: MLLE binding blockers, Cy5 peptide tracer – biochemical, fluorescence polarization, Cy5-PAM2 peptide, secondary, miRNA deadenylation inhibitor project, dose response (AID 602260); type: functional; settings: read-out: IC50_Mean
[16] = target: T5, Polyadenylate-binding protein 1; assay: MLLE domain peptide-binding blockers, IC50 – biochemical, fluorescence polarization, FITC-PAM2 peptide, dose response (AID 602259); type: functional; settings: read-out: IC50_Mean

T4 sequence (P49327 whole entry): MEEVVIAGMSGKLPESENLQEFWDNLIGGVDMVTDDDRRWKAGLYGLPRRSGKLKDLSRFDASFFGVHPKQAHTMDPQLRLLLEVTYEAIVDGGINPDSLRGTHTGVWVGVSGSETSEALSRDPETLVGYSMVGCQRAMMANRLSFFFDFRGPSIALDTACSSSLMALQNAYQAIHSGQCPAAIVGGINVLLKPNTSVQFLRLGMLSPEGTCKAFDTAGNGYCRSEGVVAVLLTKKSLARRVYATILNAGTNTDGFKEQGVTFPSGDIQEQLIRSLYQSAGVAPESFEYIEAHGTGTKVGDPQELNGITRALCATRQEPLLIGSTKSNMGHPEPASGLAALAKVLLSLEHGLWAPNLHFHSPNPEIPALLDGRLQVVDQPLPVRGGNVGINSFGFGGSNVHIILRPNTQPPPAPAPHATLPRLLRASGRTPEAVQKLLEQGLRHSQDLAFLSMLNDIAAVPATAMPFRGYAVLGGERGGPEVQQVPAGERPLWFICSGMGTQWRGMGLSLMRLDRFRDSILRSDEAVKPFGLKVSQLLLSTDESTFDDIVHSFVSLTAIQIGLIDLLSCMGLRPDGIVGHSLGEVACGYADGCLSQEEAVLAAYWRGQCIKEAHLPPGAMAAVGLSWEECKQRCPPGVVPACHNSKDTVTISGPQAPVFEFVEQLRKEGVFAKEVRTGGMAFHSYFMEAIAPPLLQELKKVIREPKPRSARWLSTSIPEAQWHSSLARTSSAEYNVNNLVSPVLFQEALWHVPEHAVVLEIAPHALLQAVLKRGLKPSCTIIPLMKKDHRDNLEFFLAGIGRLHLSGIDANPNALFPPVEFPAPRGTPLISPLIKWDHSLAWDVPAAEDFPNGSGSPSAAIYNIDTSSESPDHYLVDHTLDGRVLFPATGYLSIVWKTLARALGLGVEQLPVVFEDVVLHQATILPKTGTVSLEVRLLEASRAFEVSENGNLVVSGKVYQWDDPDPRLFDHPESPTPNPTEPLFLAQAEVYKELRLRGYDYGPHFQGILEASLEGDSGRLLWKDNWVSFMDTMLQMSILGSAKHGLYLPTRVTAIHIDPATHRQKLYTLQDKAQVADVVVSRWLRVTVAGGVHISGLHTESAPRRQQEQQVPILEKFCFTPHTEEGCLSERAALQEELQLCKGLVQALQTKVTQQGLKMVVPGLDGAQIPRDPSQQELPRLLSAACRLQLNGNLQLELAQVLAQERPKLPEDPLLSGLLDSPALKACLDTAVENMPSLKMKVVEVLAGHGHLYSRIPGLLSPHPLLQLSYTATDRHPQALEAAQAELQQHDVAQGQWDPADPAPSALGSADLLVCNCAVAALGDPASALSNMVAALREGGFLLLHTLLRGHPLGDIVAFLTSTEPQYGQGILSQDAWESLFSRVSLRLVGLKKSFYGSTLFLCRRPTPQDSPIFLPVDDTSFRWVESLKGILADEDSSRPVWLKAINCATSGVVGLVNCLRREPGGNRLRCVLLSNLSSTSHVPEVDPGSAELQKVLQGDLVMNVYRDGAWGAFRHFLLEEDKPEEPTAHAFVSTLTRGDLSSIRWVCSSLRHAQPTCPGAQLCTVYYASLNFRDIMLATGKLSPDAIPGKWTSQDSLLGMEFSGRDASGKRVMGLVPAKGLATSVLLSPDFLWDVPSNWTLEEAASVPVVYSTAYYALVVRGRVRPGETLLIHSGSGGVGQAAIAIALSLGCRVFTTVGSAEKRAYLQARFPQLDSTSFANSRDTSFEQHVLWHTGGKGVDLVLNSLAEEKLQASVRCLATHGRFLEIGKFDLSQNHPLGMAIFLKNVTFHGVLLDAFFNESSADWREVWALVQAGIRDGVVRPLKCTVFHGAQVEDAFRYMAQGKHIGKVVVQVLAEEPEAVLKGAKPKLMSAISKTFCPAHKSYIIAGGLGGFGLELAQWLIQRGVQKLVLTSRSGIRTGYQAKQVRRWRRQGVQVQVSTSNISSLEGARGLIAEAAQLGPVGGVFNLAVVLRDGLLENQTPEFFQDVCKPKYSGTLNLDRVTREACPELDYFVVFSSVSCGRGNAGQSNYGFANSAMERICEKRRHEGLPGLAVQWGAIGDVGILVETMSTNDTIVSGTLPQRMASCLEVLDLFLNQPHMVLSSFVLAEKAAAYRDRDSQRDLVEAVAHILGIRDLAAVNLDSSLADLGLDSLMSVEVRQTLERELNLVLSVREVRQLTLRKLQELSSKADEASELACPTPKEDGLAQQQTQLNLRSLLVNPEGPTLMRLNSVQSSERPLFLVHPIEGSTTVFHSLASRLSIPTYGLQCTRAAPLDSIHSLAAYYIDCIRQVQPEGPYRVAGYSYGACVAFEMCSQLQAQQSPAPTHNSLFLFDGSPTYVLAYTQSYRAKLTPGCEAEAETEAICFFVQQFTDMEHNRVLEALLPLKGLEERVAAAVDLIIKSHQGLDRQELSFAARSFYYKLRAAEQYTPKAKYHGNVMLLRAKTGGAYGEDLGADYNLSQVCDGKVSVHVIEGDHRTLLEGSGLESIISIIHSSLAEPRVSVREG
T5 sequence (P11940 whole entry, the tested form may be a part): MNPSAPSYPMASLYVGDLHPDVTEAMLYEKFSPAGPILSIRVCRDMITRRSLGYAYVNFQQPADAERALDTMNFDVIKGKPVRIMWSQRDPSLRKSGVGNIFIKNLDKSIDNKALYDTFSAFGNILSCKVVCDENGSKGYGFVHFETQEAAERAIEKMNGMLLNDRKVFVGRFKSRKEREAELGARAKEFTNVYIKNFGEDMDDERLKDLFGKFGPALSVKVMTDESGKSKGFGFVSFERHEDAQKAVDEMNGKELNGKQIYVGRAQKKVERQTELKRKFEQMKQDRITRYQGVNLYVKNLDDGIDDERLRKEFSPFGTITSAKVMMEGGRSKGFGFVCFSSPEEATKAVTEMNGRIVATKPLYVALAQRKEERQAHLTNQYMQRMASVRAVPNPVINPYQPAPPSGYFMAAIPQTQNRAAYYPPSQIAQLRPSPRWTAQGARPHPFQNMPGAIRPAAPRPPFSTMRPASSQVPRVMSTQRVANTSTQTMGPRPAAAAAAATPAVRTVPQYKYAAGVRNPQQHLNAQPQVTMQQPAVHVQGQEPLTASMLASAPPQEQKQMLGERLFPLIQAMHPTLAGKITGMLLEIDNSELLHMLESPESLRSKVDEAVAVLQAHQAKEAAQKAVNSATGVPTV
Chain of Beta Lactamase (Q932Y6 whole entry): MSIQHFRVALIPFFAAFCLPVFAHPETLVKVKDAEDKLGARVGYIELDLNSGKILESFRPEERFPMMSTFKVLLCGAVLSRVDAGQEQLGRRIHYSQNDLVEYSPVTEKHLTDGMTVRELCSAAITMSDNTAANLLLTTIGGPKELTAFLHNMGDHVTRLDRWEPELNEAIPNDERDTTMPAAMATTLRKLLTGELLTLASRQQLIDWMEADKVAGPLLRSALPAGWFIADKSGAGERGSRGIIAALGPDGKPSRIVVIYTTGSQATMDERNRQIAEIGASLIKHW
Chain of Sphingosine 1-phosphate receptor 1 (P21453 whole entry): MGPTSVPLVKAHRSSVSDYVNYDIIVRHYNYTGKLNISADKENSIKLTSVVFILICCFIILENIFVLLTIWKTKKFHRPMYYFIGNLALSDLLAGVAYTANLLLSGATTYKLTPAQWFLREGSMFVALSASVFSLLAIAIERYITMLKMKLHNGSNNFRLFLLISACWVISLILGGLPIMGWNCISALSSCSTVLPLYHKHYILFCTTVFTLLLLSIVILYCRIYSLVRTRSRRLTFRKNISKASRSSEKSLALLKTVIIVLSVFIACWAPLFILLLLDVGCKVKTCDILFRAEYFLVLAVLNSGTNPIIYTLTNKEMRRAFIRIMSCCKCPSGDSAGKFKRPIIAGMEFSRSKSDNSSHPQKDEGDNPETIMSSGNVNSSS
Chain of Protein-tyrosine kinase 2-beta (Q14289 whole entry): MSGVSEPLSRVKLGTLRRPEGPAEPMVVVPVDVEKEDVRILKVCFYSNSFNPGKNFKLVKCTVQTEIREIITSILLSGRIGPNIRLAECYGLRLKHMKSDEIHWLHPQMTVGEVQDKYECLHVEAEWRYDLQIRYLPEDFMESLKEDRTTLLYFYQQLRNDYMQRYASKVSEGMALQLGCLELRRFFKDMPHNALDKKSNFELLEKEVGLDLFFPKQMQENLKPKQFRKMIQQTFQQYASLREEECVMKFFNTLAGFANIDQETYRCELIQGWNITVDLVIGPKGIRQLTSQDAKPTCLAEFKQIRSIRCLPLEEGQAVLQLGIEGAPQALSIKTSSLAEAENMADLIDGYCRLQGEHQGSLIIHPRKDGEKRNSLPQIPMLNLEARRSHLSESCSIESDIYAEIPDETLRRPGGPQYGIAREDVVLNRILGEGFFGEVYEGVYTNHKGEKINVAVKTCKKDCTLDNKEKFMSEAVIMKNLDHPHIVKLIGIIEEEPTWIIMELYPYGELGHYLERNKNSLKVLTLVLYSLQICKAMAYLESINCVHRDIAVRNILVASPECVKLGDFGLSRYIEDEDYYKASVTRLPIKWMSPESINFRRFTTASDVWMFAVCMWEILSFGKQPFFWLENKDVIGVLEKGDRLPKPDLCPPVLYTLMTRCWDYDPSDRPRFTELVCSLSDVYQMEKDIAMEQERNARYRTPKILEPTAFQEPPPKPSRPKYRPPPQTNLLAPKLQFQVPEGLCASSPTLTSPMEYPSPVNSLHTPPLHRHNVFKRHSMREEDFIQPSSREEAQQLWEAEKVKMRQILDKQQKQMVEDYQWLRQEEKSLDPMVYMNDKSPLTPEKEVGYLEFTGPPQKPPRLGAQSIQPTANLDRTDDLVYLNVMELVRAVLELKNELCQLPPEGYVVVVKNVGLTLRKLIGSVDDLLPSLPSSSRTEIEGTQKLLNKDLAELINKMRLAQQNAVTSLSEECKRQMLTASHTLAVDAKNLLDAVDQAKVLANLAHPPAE

With `O=C(Nc1ccccc1)c1nnsc1S(=O)(=O)c1ccc(Cl)cc1` the EC50 [1] was 9.03 µM (active), the CC50 [2] was 13.4 µM (active) and the EC50 [3] was > 38 µM (not active). The IC50 [4] was 11.2 µM (not active), the IC50 [5] was 1.04 µM (active) and the IC50 [6] was 23.4 µM (not active). For the same compound, the AC50 [7] was 3.53 µM (active), the AC50 [8] was 0.293 µM (active) and the EC50 (Protein RecA) was 5.71 µM (active). The IC50 [9] was 3.5 µM (active), the IC50 (Beta Lactamase) was 18.8 µM (inactive) and the IC50 (Fatty acid synthase [10]) was 8 µM (active). The IC50 (Fatty acid synthase [11]) was 5.14 µM (active).
For `Cc1ccc2c(c1)/C(=C1/Nc3ccc(Br)cc3/C1=N\OCCN1CCNCC1)C(=O)N2`, the IC50 (Danio rerio) was 3.28 µM (not active).
For `Cc1cc(C(=O)Cn2cncn2)c(C)n1CCc1ccc(F)cc1`, the EC50 [12] was > 50 µM (active) and the IC50 [13] was > 100 µM (active).
For `CCOC(=O)CSc1nc(C2CC2)nc2ccccc12`, the IC50 [14] was > 69.5 µM (not active), the IC50 [15] was > 66 µM (inactive) and the IC50 [16] was > 66 µM (inactive).
